The source made the active and inactive calls. The rule behind the calls is not given here.

This assay in a line: M. tuberculosis BioA enzyme inhibitors, biochemical, single concentration, dry powder (AID 743184). Conditions: at 9.99 µM; hits give high values.
For the compound `O=C(Nc1ccc(Cl)cc1)c1cc2nc(C3CC3)cc(C(F)(F)F)n2n1`, the activity score is -6.7% (inactive). Regarding `Cc1nc2ccc(NC(=O)N3CCN(c4ccccc4)CC3)cc2s1`, the activity score was -0.913% (inactive). For `Cc1ccc(/C=C(\CC(=O)O)c2nc3ccccc3s2)cc1[N+](=O)[O-]`, the activity score was -2.58% (inactive).

Turning to `CC(=O)c1ccc(N2CCN(C(=O)c3cccc(Cl)c3)CC2)cc1`, the activity score was -11.7% (inactive).

Take `COc1cccc(NC(=O)CCC2CCN(C(=O)c3ccc(C(C)=O)s3)CC2)c1`: the activity score is 1.4% (inactive). The figure for `O=C(Nc1cccc(F)c1)N1CCN(c2ccccc2)CC1` is -3.46% (inactive). The figure for `CC(=O)c1ccc(N2CCN(C(=O)c3cccc(F)c3)CC2)cc1` is -6.65% (inactive); for `Cc1nc2cc(NC(=O)N3CCN(c4ccccc4)CC3)ccc2o1` it is 4.18% (inactive); for `Cc1cc(C)n2nc(C(=O)Nc3cccnc3)nc2n1` it is 11.6% (inactive). For `CC(=O)c1ccc(N2CCN(C(=O)c3ccc(Br)cc3)CC2)c(F)c1`, the activity score is 7.7% (inactive).

Take `CC(=O)c1ccc(N2CCN(C(=O)c3ccc(C)cc3)CC2)cc1`: the activity score is -7.19% (inactive). The figure for `CC(=O)c1ccc(N2CCN(C(=O)c3ccc4ncsc4c3)CC2)cc1` is -4.47% (inactive).

As for `O=C(Nc1ccc2snnc2c1)N1CCCCC1`, the activity score is -5.56% (inactive). As for `O=C(Nc1ccccc1)N1CCN(c2ccccc2)CC1`, the figure is -4.99% (inactive); as for `CC(=O)c1ccc(N2CCN(C(=O)c3cccnc3)CC2)cc1`, -8.01% (inactive); as for `COc1ccc(-c2cc(C(F)(F)F)n3nc(C(=O)Nc4cccnc4)cc3n2)cc1`, -9.52% (inactive). As for `O=C(Nc1ccc(Cl)c(-c2nc3ccccc3[nH]2)c1)c1cccnc1`, the figure is 5.48% (inactive). The figure for `O=C(COc1ccc2ccc(=O)oc2c1)N1CCN(c2ccc(F)cc2)CC1` is 3.38% (inactive); for `CC(=O)c1ccc(N2CCN(C(=O)c3ccc(F)cc3)CC2)cc1` it is -3.75% (inactive). Take `O=C(c1ccc2c(c1)OCO2)N1CCN(c2ccc(F)cc2)CC1`: the activity score is -13.9% (inactive). The figure for `O=C(Nc1cccnc1)N1CCN(c2ccccc2)CC1` is -4.1% (inactive). As for `O=C(c1ccc2c(c1)OCO2)N1CCN(Cc2ccccc2)CC1`, the figure is -10.2% (inactive); as for `CC(C)(C)c1ccc(C(=O)N2CCN(c3ccc4c(c3)OCO4)CC2)cc1`, -3.13% (inactive). The figure for `CCc1ccc(C(=O)N2CCN(Cc3ccc4c(c3)OCO4)CC2)cc1` is 0.311% (inactive). Consider `CC(=O)c1ccc(N2CCN(C(=O)c3ccc4c(c3)OCCO4)CC2)cc1`, for which the activity score is -1.22% (inactive). `O=C(c1ccc2c(c1)OCO2)N1CCN(c2ccccc2)CC1`: the activity score was 0.078% (inactive). As for `COc1ccc(C(=O)N2CCN(c3ccc(C(C)=O)cc3)CC2)cc1`, the figure is 20.7% (inactive); as for `O=C(Nc1ccc(F)cc1)N1CCN(c2ccccc2)CC1`, 5.21% (inactive); as for `Cc1ccc(-c2cc(C(F)(F)F)n3nc(C(=O)Nc4cccnc4)cc3n2)cc1`, 8.78% (inactive). The figure for `Cc1ccc(/C=C(\CCC(=O)O)c2nc3ccccc3s2)cc1[N+](=O)[O-]` is -15.2% (inactive); for `O=C(Nc1cccc(Cl)c1)N1CCN(c2ccccc2)CC1` it is 3.11% (inactive); for `Cc1ccc(/C=C(\CCCC(=O)O)c2nc3ccccc3s2)cc1[N+](=O)[O-]` it is 1.05% (inactive).

Regarding `O=C(Nc1ccc2[nH]ccc2c1)N1CCN(c2ccccc2)CC1`, the activity score is 29.5% (inactive). With `O=C(Nc1ccncc1)c1cc2nc(C3CC3)cc(C(F)F)n2n1`, the activity score is -0.117% (inactive). As for `Cc1cc(C)n2nc(C(=O)Nc3cccnc3)cc2n1`, the figure is 27.1% (inactive); as for `O=C(Nc1cccnc1)c1cc2nc(-c3cccs3)cc(C(F)(F)F)n2n1`, 6.22% (inactive). The figure for `COc1ccc(NC(=O)N2CCN(c3ccccc3)CC2)cc1` is -12.2% (inactive). For `Cc1ccc(NC(=O)N2CCN(c3ccccc3)CC2)cc1`, the activity score is 17.2% (inactive). The figure for `O=C(Nc1ccc2snnc2c1)N1CCN(c2ccccc2)CC1` is -7.17% (inactive); for `O=C(Nc1cccnc1)c1cnn2c(C(F)F)cc(C3CC3)nc12` it is -3.98% (inactive); for `O=C(O)CC/C(=C\c1ccccc1[N+](=O)[O-])c1nc2ccccc2s1` it is -1.5% (inactive).

With `O=C(Nc1cccnc1)c1cnn2c(C(F)(F)F)cc(-c3ccccc3)nc12`, the activity score is 11.8% (inactive). The figure for `CCc1ccc(N2CCN(C(=O)c3ccc4c(c3)OCO4)CC2)cc1` is -0.719% (inactive). As for `CC(=O)c1ccc(N2CCN(C(=O)c3ccccc3)CC2)cc1`, the figure is -3.73% (inactive).

Consider `COC(=O)c1c(C(=O)OC)c(-c2cccc(F)c2)n2c1CS(=O)C2` (centres undefined), for which the activity score is -8.08% (inactive).

On to `COc1cccc(NC(=O)N2CCN(c3ccccc3)CC2)c1`, for which the activity score was 2.06% (inactive). On to `Cc1ccc(/C=C(\CCC(=O)O)c2nc3ccccc3s2)cc1`, for which the activity score is -6% (inactive). As for `O=C(c1ccc2c(c1)OCO2)N1CCN(c2ccc(Cl)cc2)CC1`, the figure is -0.291% (inactive); as for `Cc1ccccc1/C=C(\CCC(=O)O)c1nc2ccccc2s1`, -6.51% (inactive); as for `O=C(O)CC/C(=C\c1ccc([N+](=O)[O-])cc1)c1nc2ccccc2s1`, 1.57% (inactive). Take `Cc1cccc(/C=C(\CCC(=O)O)c2nc3ccccc3s2)c1`: the activity score is 1.92% (inactive). The figure for `CC(=O)c1ccc(N2CCN(Cc3ccc4c(c3)OCO4)CC2)cc1` is -2% (inactive); for `COc1ccc(N2CCN(C(=O)c3ccc4c(c3)OCO4)CC2)cc1` it is -1.28% (inactive). The figure for `CC(=O)c1ccc(N2CCN(C(=O)c3ccc(Cl)cc3)CC2)cc1` is 5.46% (inactive).
